Patent publication US20170319534A1, “EUTECTIC ANESTHETIC TOPICAL COMPOSITIONS” (Humco Holding Group, Inc., priority 2016, published 2017)

Key:
[1] = test system: normal human 3D model of epidermal tissue
From the text: The remaining components shown in Example 1 above were reduced accordingly, such as by 30.5%. […] Standard Ointment includes 95% white petrolatum and 5% white wax. Permeation was measuring using Franz type diffusion cells and a normal human 3D model of epidermal tissue.

[2] = cited from earlier work
[3] = 3-month/40° C. stability of topical anesthetics; assay type: physicochemical; conditions: for content as percent (in parentheses), 30 DAYS / content, 30 DAYS / content as percent (in parentheses), 60 DAYS / content, 60 DAYS / content as percent (in parentheses), 90 DAYS / content, 90 DAYS: 40° C.; for content as percent (in parentheses), INITIAL / content, INITIAL: 3-month/40° C. stability; for EXPIRY DATING: tentative expiry dating from 3-month/40° C. stability data
Protocol: The tables below show expiration dates for various topical anesthetics, including 3-month/40° C. stability data. Full-term controlled room temperature stability data are used to support the tentative expiry dating.

Percutaneous Absorption Testing, 12 Hours [1] [%] | Percutaneous Absorption Testing, 24 Hours [1] [%] | Percutaneous Absorption Testing, 36 Hours [1] [%] | Percutaneous Absorption Testing, 48 Hours [1] [%] | content as percent (in parentheses), 30 DAYS [3] | content, 30 DAYS [3] [% W/W] | content as percent (in parentheses), 60 DAYS [3] | content, 60 DAYS [3] [% W/W] | content as percent (in parentheses), 90 DAYS [3] | content, 90 DAYS [3] [% W/W] | content as percent (in parentheses), INITIAL [3] | content, INITIAL [3] [% W/W] | EXPIRY DATING [3] [YEARS] | Structure (SMILES) | time to peak effect (ranking) ([2]; applied to mucous membranes) | duration of action after topical application [2]
100 | 100 | 100 | 100 | (102.5%) | 20.5 | (102.0%) | 20.4 | (98.0%) | 19.6 | (99.0%) | 19.8 | ~1.2 | CCOC(=O)c1ccc(N)cc1 [Benzocaine] | fastest | 
 |  |  |  |  |  |  |  |  |  |  |  |  | CCCCOc1cc(C(=O)NCCN(CC)CC)c2ccccc2n1 [Dibucaine] |  | 3 to 4 h
 |  |  |  | (103.0%) | 10.3 | (101.0%) | 10.1 | (104.0%) | 10.4 | (100.0%) | 10.0 | ~2.0 | CCN(CC)CC(=O)Nc1c(C)cccc1C [Lidocaine] |  | 
2 | 2 | 3 | 3 | (102.5%) | 4.1 | (100.0%) | 4.0 | (100.0%) | 4.0 | (95.0%) | 3.8 | ~2.0 | CCCCNc1ccc(C(=O)OCCN(C)C)cc1 [Tetracaine] |  | up to 2 hours
